In patent publication US10874686B2, “Anthranilyl-adenosinemonosulfamate analogs and uses thereof” (Memorial Sloan-Kettering Cancer Center, priority 2015, dated 2020):
Like-named read-outs stand apart in the source and are kept apart here.

Legend:
[1] = target: P. aeruginosa PqsA (Pseudomonas aeruginosa, UniProt Q9I4X3); assay: PqsA inhibition, spectrophotometric assay with recombinant PqsA (anthranilyl-CoA formation at 365 nm); assay type: biochemical; conditions: uncompetitive with respect to anthranilate and CoA
Experimental: PqsA inhibitors were evaluated using a quantitative spectrophotometric assay with recombinant PqsA, detecting formation of anthranilyl-CoA at 365 nm. See, e.g., Coleman et al. (2008) J. Bacteriol. 190, 1247. […] See, e.g., Morrison et al. Biochim. Biophys. Acta, Enzymol. 185, 269-286; Williams et al. (1979) Methods Enzymol. 63, 437. […] See, e.g., Qiao et al. (2007) J. Am. Chem. Soc. 129, 6350.
Reactions were performed at 37° C. in a 0.5 mL volume in a Varian Cary 100 UV-visible spectrophotometer with Cary WinUV software. Reaction mixtures contained 100 mM HEPES, pH 8.0, 0.2 mM dithiothreitol, 2 mM MgCl2, ˜3.3 μg PqsA protein (˜60 nM final), and depending on which substrate varied, 1 mM ATP (disodium salt), 0.5 mM coenzyme A (tri-lithium salt), 0.5 mM sodium anthranilate, and inhibitor (usually as a DMSO stock solution). Reactions were blanked and preincubated with all components except anthranilate at 37° C. for 1 min, then initiated by addition of anthranilate. Formation of anthraniloyl-CoA was monitored ance at 365 nm (ε=5.5 mM−1 cm−1) for 1 min. Data were analyzed using GraphPad Prism 6 software.

[2] = test system: MRC5 cells; assay: Cytotoxicity cell viability assay (CellTiter Glo), MRC5; assay type: cell-based; conditions: for IC50: Homo sapiens, MRC5, 48 hrs, luminescence; for toxicity in words, CellTiter Glo, MRC5: MRC5, luminescence readout, up to 1000 μM
Excerpt: Promega Cell Titer-Glo utilizes the ATP dependent conversion of Luciferin to Oxyluciferin by a recombinant Luciferase in order to quantify the number of metabolically active cells in a sample. Quantification is possible because the number of RLU's detected is linearly proportional to the amount of ATP produced by metabolically active cells in culture at the time of lysis. Therefore, the relative cytotoxicity of each compound can be tested by quantifying the amount of ATP present in each microtiter well as compared to control groups. HepG2 and MRC5 were plated at a density of 1500 cells/25 al in well in the assay plate and allowed to settle overnight. 0.1 μL of compounds was then transferred from the source plate, into the cell assay plates. The cells were left to incubate with the compounds for 48 hrs, after which, 25 μL of Promega Cell Titer-Glo was added to each well, and allowed to incubate at room temperature with shaking for 20 minutes. RLU's for each well were then recorded on a BioTek Synergy NEO. DMSO was used as negative control

[3] = test system: HHQ and PQS quinolone production in P. aeruginosa strain PA14; assay: Inhibition of HHQ and PQS quinolone production in P. aeruginosa strain PA14 (LC-MS/MS); assay type: cell-based, Pseudomonas aeruginosa; conditions: for inhibition at 1500 µM / inhibition at 1000 µM: Pseudomonas aeruginosa
Experimental: The production of PQS and HHQ by strain PA14 was performed in triplicate in 14-mL round bottom falcon tubes containing 3-mL cultures in LB medium. Tubes were incubated at 37° C. in an orbital shaker at 225 rpm. Cultures were inoculated with 15-hour culture in LB in order to obtain a starting OD600=0.05, with or without inhibitors added. For PQS and HHQ analysis, a 20 μl aliquot was taken at time points as indicated. Each sample was diluted with 180 μL of methanol containing the internal standard (100 μM of d^4-PQS or d^4-HHQ) and 2% acetic acid. The solution was then vertexed and centrifuged at 13,000 g for 5 minutes, and the supernatant was transferred to a 96-well plates for LC-MS/MS analysis. Bacterial growth was measured by recording OD600 at 20 h to provide the data in FIG. 7A.
Liquid chromatography tandem mass spectrometry (LC-MS/MS) was carried out on an Agilent Technologies 6410 triple quad LC-MS/MS system with autosampler in electrospray ionization (ESI) mode, with an Agilent Zorbax Eclipse XDB-C18 reverse phase column (50×4.6 mm, 5 μm) using a flow rate of 0.5 mL/minute and an isocratic mobile phase of 60% CH3CN in 0.1% aqueous formic acid over 5 minutes. Positive electrospray in MRM mode was employed to quantify PQS and HHQ, using the ion transitions HHQ 244 to 159, d^4-HHQ 248 to 163, PQS 260 to 175, and d^4-PQS 264 to 179; shown in Table E3.
PqsA inhibitors 1-5 were evaluated for their ability to inhibit HHQ and PQS quinolone production in P. aeruginosa strain PA14 (FIG. 6). HHQ and PQS concentrations were determined by LC-MS/MS quantitation relative to deuterated internal standards. 6-Fluoroanthranilate (6FABA), a substrate analogue reported previously to inhibit quinolone production at millimolar concentrations, was used as a positive control. Compounds were initially tested at 1.5 mM concentration, and HHQ and PQS were quantified at 8 and 20 hours, respectively. These time points were selected based on an initial time course study of quinolone production in the absence of inhibitors, with HHQ or PQS production peaking at these respective time points. […] This could be due to differences in cell penetration, stability, and/or target specificity. Finally, because inhibitors of the quinolone quorum sensing pathway should not impact bacterial growth, we confirmed that none of the six inhibitors above inhibited growth over 20 h (FIG. 7A). Encouraged by the ability of anthranilyl-AMS (1) and anthranilyl-AMSN (2) to inhibit HHQ and PQS quinolone production, the activity of these two inhibitors and 6FABA were investigated in greater detail. In untreated controls, HHQ and PQS production peaked at 8 and 20 hours, respectively. Previously reported time course studies have similarly shown that HHQ levels peak at 6-8 hours while PQS levels continue to rise. See, e.g., Deziel et al. (2004) Proc. Natl. Acad. Sci. U.S.A 101, 1339; Kesarwani et al. (2011) PLoS Pathog. 7, e1002192. All three inhibitors were able to decrease quinolone production in a dose- and time-dependent manner (FIG. 2A). […] Such a perturbation might still be sufficient to impact P. aeruginosa virulence in vivo. […] See, e.g., Lesic et al. (2007) PLoS Pathog. 3, e126.

[4] = PA14, 8 h, read-out: inhibition of HHQ production
[5] = PA14, 20 h, read-out: inhibition of PQS production
[6] = PA14, read-out: inhibition of HHQ production
[7] = PA14, read-out: inhibition of PQS production

Chain of P. aeruginosa PqsA (Q9I4X3 whole entry): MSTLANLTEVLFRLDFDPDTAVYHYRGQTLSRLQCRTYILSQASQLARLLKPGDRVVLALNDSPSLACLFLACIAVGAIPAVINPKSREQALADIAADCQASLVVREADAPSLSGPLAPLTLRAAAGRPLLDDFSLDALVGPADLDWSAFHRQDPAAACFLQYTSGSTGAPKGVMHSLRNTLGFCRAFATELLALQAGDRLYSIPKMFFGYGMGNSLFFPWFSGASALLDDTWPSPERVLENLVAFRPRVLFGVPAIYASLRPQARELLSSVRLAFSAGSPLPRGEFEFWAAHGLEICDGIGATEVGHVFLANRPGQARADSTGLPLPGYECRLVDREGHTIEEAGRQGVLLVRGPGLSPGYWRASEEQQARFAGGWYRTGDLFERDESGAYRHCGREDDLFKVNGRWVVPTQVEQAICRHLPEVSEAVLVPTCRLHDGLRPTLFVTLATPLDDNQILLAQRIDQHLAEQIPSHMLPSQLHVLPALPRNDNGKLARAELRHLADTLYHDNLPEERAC

| SMILES | mode of PqsA inhibition [1] | IC50 [2] | toxicity in words, CellTiter Glo, MRC5 [2] | dose- and time-dependent decrease of quinolone production, in words ([3]; FIG. 2A) | inhibition at 1500 µM [3, 4] | inhibition at 1500 µM [3, 5] | inhibition at 1000 µM [3, 6] | inhibition at 1000 µM [3, 7] |
| --- | --- | --- | --- | --- | --- | --- | --- | --- |
| Nc1ccccc1C(=O)NS(=O)(=O)OC[C@H]1O[C@@H](n2cnc3c(N)ncnc32)[C@H](O)[C@@H]1O [anthranilyl-AMS, Anthranilyl-AMS] | competitive inhibitors with respect to ATP | 10.6 µM | significant toxicity in the tested range | same trend of inhibition, albeit again with lower potency | 67% | 77% | 47% | 40% |
| Nc1ccccc1C(=O)NS(=O)(=O)NC[C@H]1O[C@@H](n2cnc3c(N)ncnc32)[C@H](O)[C@@H]1O [anthranilyl-AMSN, Anthranilyl-AMSN] | competitive inhibitors with respect to ATP | 33.7 µM | significant toxicity in the tested range |  | 90% | 92% | 84% | 84% |
